In patent publication US10717733B2, “Haloallylamine indole and azaindole derivative inhibitors of lysyl oxidases and uses thereof” (PHARMAXIS LTD., priority 2016, dated 2020) one finds IC50 data, which are given here for 12 molecules.

Common to all, as to format: biochemical
One test deals with Bovine LOX (Bos taurus (Bovine), UniProt P33072). Put plainly: LOX inhibition, peroxidase-coupled Amplex Red amine oxidase assay. The conditions noted are these: 30 min preincubation at 37° C., putrescine substrate. An excerpt:
(§1) Method to Determine the Ability of Compounds of the Invention to Inhibit LOX and LOXL1-4 from Different Sources
Lysyl oxidase (LOX) is an extracellular copper dependent enzyme which oxidizes peptidyl lysine and hydroxylysine residues in collagen and lysine residues in elastin to produce peptidyl alpha-aminoadipic-delta-semialdehydes. […] There are five LOX family members; these are LOX, LOXL1, LOXL2, LOXL3 and LOXL4. LOX and LOXL family members can be acquired as recombinant active proteins from commercial sources, or extracted from animal tissues like bovine aorta, tendons, pig skin; or prepared from cell cultures. The inhibitory effects of the compounds of the present invention were tested against the given LOX-LOXL preparation using a high-throughput coupled colorimetric method (Holt A. and Palcic M., A peroxidase-coupled continuous absorbance plate-reader assay for flavin monoamine oxidases, copper-containing amine oxidases and related enzymes. Nat. Protoc. 2006; 1: 2498-2505). The assay was developed using either 384 or 96 well format. Briefly, in a standard 384 well plate assay 25 μL of a dilution of any of the isoenzymes and orthologues in 1.2 M urea, 50 mM sodium borate buffer (pH 8.2) were added into each well in the presence of 1 μM mofegiline and 0.5 mM pargyline (to inhibit SSAO and MAO-B and MAO-A, respectively). […] of a reaction mixture containing twice the KM concentration of putrescine (Sigma Aldrich, e.g. 20 mM for LOX, or 10 mM for LOXL2 and LOXL3), 120 μM Amplex Red (Sigma Aldrich) and 1.5 U/mL horseradish peroxidase (Sigma Aldrich) prepared in 1.2 M urea, 50 mM sodium borate buffer (pH 8.2) were then added to the corresponding wells. The above volumes were doubled in the case of 96 wells plate. The fluorescence (RFU) was read every 2.5 min for 30 min at a range of temperatures from 37° to 45° C., excitation 565 nm and emission 590 (Optima; BMG labtech). The slope of the kinetics for each well was calculated using MARS data analysis software (BMG labtech) and this value was used to deduce the IC50 value (Dotmatics).

The next test has as its target Human LOXL2 (Homo sapiens (Human), UniProt Q9Y4K0). Put plainly: LOXL2 inhibition, peroxidase-coupled Amplex Red amine oxidase assay. The conditions noted are these: 30 min preincubation at 37° C., putrescine substrate.
Description: as §1
Lysyl oxidase (LOX) is an extracellular copper dependent enzyme which oxidizes peptidyl lysine and hydroxylysine residues in collagen and lysine residues in elastin to produce peptidyl alpha-aminoadipic-delta-semialdehydes. […] There are five LOX family members; these are LOX, LOXL1, LOXL2, LOXL3 and LOXL4. LOX and LOXL family members can be acquired as recombinant active proteins from commercial sources, or extracted from animal tissues like bovine aorta, tendons, pig skin; or prepared from cell cultures. The inhibitory effects of the compounds of the present invention were tested against the given LOX-LOXL preparation using a high-throughput coupled colorimetric method (Holt A. and Palcic M., A peroxidase-coupled continuous absorbance plate-reader assay for flavin monoamine oxidases, copper-containing amine oxidases and related enzymes. Nat. Protoc. 2006; 1: 2498-2505). The assay was developed using either 384 or 96 well format. Briefly, in a standard 384 well plate assay 25 μL of a dilution of any of the isoenzymes and orthologues in 1.2 M urea, 50 mM sodium borate buffer (pH 8.2) were added into each well in the presence of 1 μM mofegiline and 0.5 mM pargyline (to inhibit SSAO and MAO-B and MAO-A, respectively). Test compounds were dissolved in DMSO and tested in a Concentration Response Curve (CRC) with 11 data points, typically in the micromolar or nanomolar range after incubation with the enzyme for 30 min at 37° C. Twenty five L of a reaction mixture containing twice the KM concentration of putrescine (Sigma Aldrich, e.g. 20 mM for LOX, or 10 mM for LOXL2 and LOXL3), 120 μM Amplex Red (Sigma Aldrich) and 1.5 U/mL horseradish peroxidase (Sigma Aldrich) prepared in 1.2 M urea, 50 mM sodium borate buffer (pH 8.2) were then added to the corresponding wells. The above volumes were doubled in the case of 96 wells plate. The fluorescence (RFU) was read every 2.5 min for 30 min at a range of temperatures from 37° to 45° C., excitation 565 nm and emission 590 (Optima; BMG labtech). The slope of the kinetics for each well was calculated using MARS data analysis software (BMG labtech) and this value was used to deduce the IC50 value (Dotmatics).

Test [1] has as its target human recombinant SSAO/VAP-1 (Homo sapiens (Human), UniProt Q16853). In words: Inhibition of human recombinant SSAO/VAP-1 amine oxidase activity. The conditions noted are these: 30 min preincubation at 37° C., 600 μM benzylamine. As to the method: Method to Determine the Ability of Compounds of Formula I to Inhibit Human Recombinant SSAO/VAP-1
Human recombinant SSAO/VAP-1 amine oxidase activity was determined using the coupled colorimetric method as described for monoamine oxidase, copper-containing amine oxidases and related enzymes (Holt A. and Palcic M., A peroxidase-coupled continuous absorbance plate-reader assay for flavin monoamine oxidases, copper-containing amine oxidases and related enzymes. Nat Protoc 2006; 1: 2498-2505). Briefly, a cloned cDNA template corresponding to residues 34-763 of human SSAO/VAP-1, and incorporating a mouse Ig kappa (κ) signal sequence, N-terminal flag epitope tag and tobacco etch virus (TEV) cleavage site, was assembled in a mammalian expression vector (pLO-CMV) by Geneart AG. This vector containing human SSAO/VAP-1 residues was transfected into CHO-K1 glycosylation mutant cell line, Lec 8. A clone stably expressing human SSAO/VAP-1 was isolated and cultured in large scale. Active human SSAO/VAP-1 was purified and recovered using immunoaffinity chromatography. This was used as the source for SSAO/VAP-1 activity. A high-throughput colorimetric assay was developed using either 96 or 384 well format. Briefly, in a standard 96 well plate assay 50 μL of purified human SSAO/VAP-1 (0.25 μg/mL) in 0.1 M sodium phosphate buffer (pH 7.4) was added into each well. Test compounds were dissolved in DMSO and tested in a Concentration Response Curve (CRC) with 4-11 data points, typically in the micromolar or nanomolar range after incubation with human SSAO/VAP-1 for 30 min at 37° C. After 30 min incubation, 50 μL of the reaction mixture containing 600 μM benzylamine (Sigma Aldrich), 120 μM Amplex Red (Sigma Aldrich) and 1.5 U/mL horseradish peroxidase (Sigma Aldrich) prepared in 0.1 M sodium phosphate buffer (pH 7.4) were added to the corresponding well. The fluorescence unit (RFU) was read every 2.5 min for 30 min at 37° C. excitation 565 nm and emission 590 (Optima; BMG labtech). The slope of the kinetics for each well was calculated using MARS data analysis software (BMG labtech) and this value was used to deduce the IC50 value (Dotmatics).

Another test addresses Recombinant human MAO-B (Homo sapiens (Human), UniProt P27338). Put plainly: Inhibition of human recombinant MAO-B. As to conditions: benzylamine 100 μM. The method, then:
Method to Determine the Ability of Compounds of Formula I to Inhibit Human Recombinant MAO-B
The specificity of the compounds of this invention was tested by determining their ability to inhibit MAO-B activities in vitro. Recombinant human MAO-B (0.06 mg/mL; Sigma Aldrich) was used as source of MAO-B enzyme activities. The assay was performed in a similar way as for human SSAO/VAP-1 (Example 66) except, the substrate benzylamine was used at 100 μM.

The structures appear in SMILES notation. Structures can show the parent of a compound that is named as a salt. Where only a bound is given, the exact number is not on record here.

human recombinant SSAO/VAP-1, sequence (Q16853 34-763): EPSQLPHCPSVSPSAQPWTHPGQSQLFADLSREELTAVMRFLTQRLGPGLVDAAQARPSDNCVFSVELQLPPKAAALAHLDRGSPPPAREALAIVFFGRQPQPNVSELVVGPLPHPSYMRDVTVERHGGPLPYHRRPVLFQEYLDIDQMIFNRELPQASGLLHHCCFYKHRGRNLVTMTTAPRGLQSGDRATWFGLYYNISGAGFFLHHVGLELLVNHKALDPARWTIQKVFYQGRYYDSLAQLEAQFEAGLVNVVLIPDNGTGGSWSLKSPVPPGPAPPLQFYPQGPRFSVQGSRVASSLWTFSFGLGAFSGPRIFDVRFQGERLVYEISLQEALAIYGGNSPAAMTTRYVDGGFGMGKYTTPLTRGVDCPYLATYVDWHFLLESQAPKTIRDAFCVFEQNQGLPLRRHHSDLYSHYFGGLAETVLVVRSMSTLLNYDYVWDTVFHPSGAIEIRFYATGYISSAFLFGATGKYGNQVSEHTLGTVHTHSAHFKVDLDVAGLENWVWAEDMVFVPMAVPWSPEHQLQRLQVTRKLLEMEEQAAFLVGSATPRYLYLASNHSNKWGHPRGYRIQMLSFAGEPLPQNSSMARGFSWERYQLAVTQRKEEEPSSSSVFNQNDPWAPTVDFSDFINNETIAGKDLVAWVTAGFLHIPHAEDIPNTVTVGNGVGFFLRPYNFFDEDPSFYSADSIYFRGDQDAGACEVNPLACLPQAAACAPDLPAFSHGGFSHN
Human LOXL2, sequence (Q9Y4K0 26-774): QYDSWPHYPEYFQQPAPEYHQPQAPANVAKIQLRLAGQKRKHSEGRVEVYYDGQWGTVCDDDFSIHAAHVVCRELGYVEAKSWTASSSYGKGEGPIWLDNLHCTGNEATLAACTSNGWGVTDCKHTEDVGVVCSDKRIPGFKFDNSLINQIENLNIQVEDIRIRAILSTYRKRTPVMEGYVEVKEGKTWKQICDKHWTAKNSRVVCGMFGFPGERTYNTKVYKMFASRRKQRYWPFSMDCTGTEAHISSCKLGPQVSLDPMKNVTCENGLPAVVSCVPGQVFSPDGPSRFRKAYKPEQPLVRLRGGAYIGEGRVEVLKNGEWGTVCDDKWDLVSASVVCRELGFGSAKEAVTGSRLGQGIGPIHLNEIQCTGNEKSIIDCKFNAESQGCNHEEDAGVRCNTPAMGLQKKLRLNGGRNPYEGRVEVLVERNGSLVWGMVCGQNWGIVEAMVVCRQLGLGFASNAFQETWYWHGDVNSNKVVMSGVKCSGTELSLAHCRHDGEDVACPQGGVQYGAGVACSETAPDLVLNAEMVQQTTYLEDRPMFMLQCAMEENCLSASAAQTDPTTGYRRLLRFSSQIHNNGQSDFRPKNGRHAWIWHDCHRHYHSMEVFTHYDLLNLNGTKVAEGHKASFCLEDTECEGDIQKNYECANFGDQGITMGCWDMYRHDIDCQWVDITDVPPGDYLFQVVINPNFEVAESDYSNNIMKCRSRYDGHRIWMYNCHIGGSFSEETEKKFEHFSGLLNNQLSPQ
Recombinant human MAO-B, sequence (P27338 whole entry): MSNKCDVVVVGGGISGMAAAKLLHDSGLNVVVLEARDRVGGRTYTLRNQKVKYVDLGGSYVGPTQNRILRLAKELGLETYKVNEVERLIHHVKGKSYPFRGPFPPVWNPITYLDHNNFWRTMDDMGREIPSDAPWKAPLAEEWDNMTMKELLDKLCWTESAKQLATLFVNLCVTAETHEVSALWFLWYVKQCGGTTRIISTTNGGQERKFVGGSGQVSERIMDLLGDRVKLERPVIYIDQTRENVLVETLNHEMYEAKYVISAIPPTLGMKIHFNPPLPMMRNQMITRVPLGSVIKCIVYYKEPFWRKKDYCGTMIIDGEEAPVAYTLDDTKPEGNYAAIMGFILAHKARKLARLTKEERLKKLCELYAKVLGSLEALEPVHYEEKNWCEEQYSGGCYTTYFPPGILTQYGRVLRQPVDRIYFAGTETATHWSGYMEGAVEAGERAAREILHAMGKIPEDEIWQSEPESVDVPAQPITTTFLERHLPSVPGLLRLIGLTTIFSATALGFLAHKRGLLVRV
Bovine LOX, sequence (P33072 170-418): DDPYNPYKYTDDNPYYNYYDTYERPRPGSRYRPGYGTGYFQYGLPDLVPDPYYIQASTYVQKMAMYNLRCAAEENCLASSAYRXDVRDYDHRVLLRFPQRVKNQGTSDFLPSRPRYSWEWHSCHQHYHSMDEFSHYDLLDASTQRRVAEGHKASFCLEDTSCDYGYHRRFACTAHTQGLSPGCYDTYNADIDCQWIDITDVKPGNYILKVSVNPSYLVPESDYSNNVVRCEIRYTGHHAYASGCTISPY

Regarding `CCOC(=O)c1cc2c(-c3cccc(S(=O)(=O)N(C)C)c3)c(C)n(C/C(F)=C/CN)c2cc1F` [Compound 22, (Z)-ethyl 1-(4-amino-2-fluorobut-2-en-1-yl)-3-(3-(N,N-dimethylsulfamoyl)phenyl)-6-fluoro-2-methyl-1H-indole-5-carboxylate], the IC50 (in general, the midpoint of a concentration-inhibition curve) against Bovine LOX was > 0.3 µM; at Human LOXL2 it was < 0.3 µM; in test [1], > 3 µM; at Recombinant human MAO-B, > 3 µM.
As to `Cc1c(-c2ccc(F)cc2)c2cc(C(=O)O)ccc2n1C/C(F)=C/CN` [Compound 23, (Z)-1-(4-amino-2-fluorobut-2-en-1-yl)-3-(4-fluorophenyl)-2-methyl-1H-indole-5-carboxylic acid], the IC50 on Bovine LOX was > 0.3 µM; against Human LOXL2, < 0.3 µM; in test [1] it was > 3 µM; at Recombinant human MAO-B, > 3 µM.
Regarding `CCOC(=O)c1ccc2c(c1)c(-c1ccc(F)cc1)c(C)n2C/C(F)=C/CN` [Compound 24, ethyl (Z)-1-(4-amino-2-fluorobut-2-en-1-yl)-3-(4-fluorophenyl)-2-methyl-1H-indole-5-carboxylate], the IC50 was > 0.3 µM against Bovine LOX, < 0.3 µM on Human LOXL2, > 3 µM in test [1] and > 3 µM at Recombinant human MAO-B.
In the case of `Cc1c(-c2cccc(S(=O)(=O)N(C)C)c2)c2cnccc2n1C/C(F)=C/CN` [Compound 26, (Z)-3-(1-(4-amino-2-fluorobut-2-en-1-yl)-2-methyl-1H-pyrrolo[3,2-c]pyridin-3-yl)-N,N-dimethylbenzenesulfonamide Dihydrochloride], the concentration for half-maximal inhibition (IC50) at Bovine LOX is > 0.3 µM; on Human LOXL2 it was < 0.3 µM; in test [1], > 3 µM; at Recombinant human MAO-B, > 3 µM.
On to `CCOC(=O)c1ccc2c(c1)c(-c1cccc(Cl)c1)c(C)n2C/C(F)=C/CN` [Compound 27, ethyl (Z)-1-(4-amino-2-fluorobut-2-en-1-yl)-3-(3-chlorophenyl)-2-methyl-1H-indole-5-carboxylate], for which the IC50 is > 0.3 µM against Bovine LOX, < 0.3 µM against Human LOXL2, > 3 µM in test [1] and > 3 µM at Recombinant human MAO-B.
As to `Cc1c(-c2cccc(Cl)c2)c2cc(C(=O)O)ccc2n1C/C(F)=C/CN` [Compound 28, (Z)-1-(4-amino-2-fluorobut-2-en-1-yl)-3-(3-chlorophenyl)-2-methyl-1H-indole-5-carboxylic acid], the half-inhibitory concentration (IC50) against Bovine LOX is > 0.3 µM; against Human LOXL2 it was < 0.3 µM; in test [1], > 3 µM; on Recombinant human MAO-B it was > 3 µM.
As to `Cc1c(-c2cccc(S(=O)(=O)N(C)C)c2)c2cc(-c3nn[nH]n3)ccc2n1C/C(F)=C/CN` [Compound 29, (Z)-3-(1-(4-amino-2-fluorobut-2-en-l-yl)-2-methyl-5-(2H-tetrazol-5-yl)-1H-indol-3-yl)-N,N-dimethylbenzenesulfonamide, Hydrochloride], the half-maximal inhibitory concentration (IC50) is > 0.3 µM on Bovine LOX, < 0.3 µM on Human LOXL2, > 3 µM in test [1] and > 3 µM on Recombinant human MAO-B.
Turning to `CCOC(=O)c1ccc2c(c1)c(-c1cccc(C(C)(C)C)c1)c(C)n2C/C(F)=C/CN` [Compound 30, ethyl (Z)-1-(4-amino-2-fluorobut-2-en-1-yl)-3-(3-(tert-butyl)phenyl)-2-methyl-1H-indole-5-carboxylate], the half-maximal inhibitory concentration (IC50) against Bovine LOX is > 0.3 µM; against Human LOXL2, < 0.3 µM; in test [1], > 3 µM; at Recombinant human MAO-B it was > 3 µM.
In the case of `Cc1c(-c2cccc(C(C)(C)C)c2)c2cc(C(=O)O)ccc2n1C/C(F)=C/CN` [Compound 31, (Z)-1-(4-amino-2-fluorobut-2-en-l-yl)-3-(3-(tert-butyl)phenyl)-2-methyl-1H-indole-5-carboxylic acid, Hydrochloride], the half-inhibitory concentration (IC50) against Bovine LOX was > 0.3 µM; against Human LOXL2, < 0.3 µM; in test [1], > 3 µM; on Recombinant human MAO-B it was > 3 µM.
Consider `Cc1c(-c2cccc(S(=O)(=O)N(C)C)c2)c2ccncc2n1C/C(F)=C/CN` [Compound 32, (Z)-3-(1-(4-amino-2-fluorobut-2-en-1-yl)-2-methyl-1H-pyrrolo[2,3-c]pyridin-3-yl)-N,N-dimethylbenzenesulfonamide Dihydrochloride], for which the concentration for half-maximal inhibition (IC50) was > 0.3 µM on Bovine LOX, < 0.3 µM at Human LOXL2, > 3 µM in test [1] and > 3 µM on Recombinant human MAO-B.
Consider `CCOC(=O)c1cccc(-c2c(C)n(C/C(F)=C/CN)c3ccc(S(=O)(=O)N(C)C)cc23)c1` [Compound 33, ethyl (Z)-3-(1-(4-amino-2-fluorobut-2-en-1-yl)-5-(N,N-dimethylsulfamoyl)-2-methyl-1H-indol-3-yl)benzoate], for which the IC50 is > 0.3 µM at Bovine LOX, < 0.3 µM against Human LOXL2, > 3 µM in test [1] and > 3 µM at Recombinant human MAO-B.
For `Cc1c(-c2cccc(C(=O)O)c2)c2cc(S(=O)(=O)N(C)C)ccc2n1C/C(F)=C/CN` [Compound 34, (Z)-3-(1-(4-amino-2-fluorobut-2-en-1-yl)-5-(N,N-dimethylsulfamoyl)-2-methyl-1H-indol-3-yl)benzoic acid], the IC50 was > 0.3 µM at Bovine LOX, < 0.3 µM at Human LOXL2, > 3 µM in test [1] and > 3 µM at Recombinant human MAO-B.
